In US9345389B2, “Additional systems and methods for providing real-time anatomical guidance in a diagnostic or therapeutic procedure” (EMORY UNIVERSITY, priority 2010, dated 2016):

What was measured:
[1] = Inspection of internal organs and behavior for toxicity in Apcmin/+ mice
Method: This study was conducted in two mice. Two mice were injected with 2 mg/kg ICG. One mouse received ICG intravenously via a tail vein. The other mouse was administered ICG intraperitoneally. After ICG had circulated for 20 h, the mice were euthanized, the lower GI was removed, washed extensively, sectioned roughly into four segments; duodenum, jejunum, ilium, and cecum and colon, and formalin fixed. The mice were then imaged using the integrated imaging and spectroscopy imaging system as provided in this disclosure.
Since these doses were at the maximum recommended dose, the internal organs were briefly inspected for any aberrant signs of toxicity.

4T1 breast tumors = assay: In vivo and intra-operative tumor detection with handheld spectroscopic pen device; parameters: species or system mouse; conditions: ICG 357 μg/kg i.v.
Method: All in vivo murine studies were performed under an approved protocol by the Emory University IACUC. The mouse mammary carcinoma cell line 4T1, which stably expresses a firefly luciferase gene, was obtained from Dr. Lily Yang at Emory University (Atlanta, Ga.). 4T1 cells were cultured in DMEM containing 10% FBS and 1× antibiotic/antimycotic agent. Prior to injection into mice, the cells were washed two times with PBS and diluted in sterile PBS to a final concentration of 2×10^7 cells/mL. Mammary tumors were inoculated into nude mice by the subcutaneous administration of 2×10^6 4T1 cells into the mouse flank. Once the tumors were approximately 4 mm in diameter, ICG was administered intravenously (i.v.) via a tail vein at a dose of 357 μg/kg. After 24 h, mice were anesthetized by intraperitoneal (i.p.) injection of a 2.5% solution of tribromoethanol (350 mg/kg). Tumor-bearing mice undergoing bioluminescence imaging were administered i.p. 100 μL, of a luciferin solution (30 mg/mL). Bioluminescent images were acquired on a Kodak In-Vivo FX Imaging System from Carestream Molecular Imaging (Rochester, N.Y.). Corresponding bright-field images were taken for anatomical reference of the bioluminescence signal. A series of spectra were acquired on tumor-bearing mice using the handheld spectroscopic pen device. First, the position of the handheld spectroscopic pen device was fixed to about 1-2 cm above the location of the acquisition area on the mouse. Spectra were collected in 1 s and were obtained from several locations, including directly over the center of the tumor and the peritumoral region. After the spectra were acquired, the integrated signal intensity was calculated. The signal intensity was compared to both the bright-field anatomical location and the bioluminescence signal.
In vivo investigations were conducted to test the ability of the handheld spectroscopic pen device to detect intratumoral deposition of ICG after intravenous infusion. This contrast agent has been approved by the U.S. Food and Drug Administration (FDA) and is indicated for various uses in humans, such as for determining cardiac output, hepatic function and liver blood flow, and for ophthalmic angiography. To assess degree of tumor contrast enhancement using ICG, mice were used in which 4T1 tumor cells (2×10^6 in number) were subcutaneously injected 18 days prior to imaging. The tumor cells were genetically engineered to express the firefly luciferase gene; intravenous injection of luciferin after tumor development causes these cells to emit bioluminescent light and allows one to determine the precise location of tumors using bioluminescence imaging. […]

[2] = stated as known; cited from earlier work
polyps = assay: Detection of murine GI polyps (Apcmin/+ FAP model) with SpectroPen; assay type: in vivo, mouse
Method: This example describes the detection of polyps in the murine FAP model, Apcmin/+. This study was conducted in two mice. Two mice were injected with 2 mg/kg ICG. One mouse received ICG intravenously via a tail vein. The other mouse was administered ICG intraperitoneally. After ICG had circulated for 20 h, the mice were euthanized, the lower GI was removed, washed extensively, sectioned roughly into four segments; duodenum, jejunum, ilium, and cecum and colon, and formalin fixed. The mice were then imaged using the integrated imaging and spectroscopy imaging system as provided in this disclosure.
Intestinal segments were rinsed with PBS. […] Next the “SpectroPen” handheld probe was placed 1 cm above the intestinal tissue and clamped into that position for consistent repetitive acquisitions. The 1 cm space between the SpectroPen and the tissue correlates roughly to a 1 mm laser spot size. • 3. Spectra were acquired and recorded from apparently healthy sections of the intestine (considered background signal), and polyps. An integration time of 1 s was utilized. • 4.

[3] = Optical properties of ICG; assay type: physicochemical; conditions: 785 nm excitation
Text: The ability of the handheld spectroscopic pen device to differentiate contrast agent signals from the autofluorescence and Raman scattering of major tissue/organ types (i.e. fat, liver and lung) was first examined. […] At 785 nm excitation, ICG has a fluorescence peak at 816 nm, while fat has a background fluorescence peak at 805 nm plus resolvable Raman signals at 862, 1070, 1297, 1439, and 1652 cm^−1 (corresponding to 842, 857, 874, 885, and 902 nm in wavelength, respectively). ICG buried in fat has identifiable contributions of both ICG and fat (e.g., ICG fluorescence at 816 nm and the fat Raman peaks at 874 and 885 nm).

[4] = after intravenous administration, bound to serum proteins; cited from earlier work

## CC1(C)C(/C=C/C=C/C=C/C=C2\N(CCCCS(=O)(=O)O)c3ccc4ccccc4c3C2(C)C)=[N+](CCCCS(=O)(=O)[O-])c2ccc3ccccc3c21 [ICG, Indocyanine green]
[1]; 2 mg/kg ICG intraperitoneally, 20 h, patent attributes to anemia from polyps
  appearance of internal organs: pale color was immediately noticed, especially in the liver and kidneys
[1]; 2 mg/kg ICG via tail vein
  behavioral changes: no dramatic behavioral changes
4T1 breast tumors; after surgical removal
  signal of excised tumors vs surgical cavity: 10 fold
4T1 breast tumors; mice with 4T1 tumors, 24 h
  integrated signal intensity, tumor areas vs normal regions: ~10 times
  signal at adjacent edges (less than 2 mm from the tumor) vs more remote areas: 5-6 times
4T1 breast tumors; residual tumor at margin of cavity
  ICG signal at positive surgical margin vs adjacent tissue: 5 times
[2]
  route of excretion: secreted entirely into bile
polyps; 2 mg/kg ICG intraperitoneally, 20 h, GI tract ex vivo
  ICG signal in polyps vs background: greater than in the background
polyps; 2 mg/kg ICG intravenously, 20 h, GI tract ex vivo
  ICG signal in polyps vs background tissue: higher signal in polyps then in the background tissue
polyps; 2 mg/kg ICG, 20 after injection
  signal in GI tract, i.p. vs i.v. route: larger signal in the GI tract compared to mouse injected i.v.
polyps; Apcmin/+ mouse, colon, 2 mg/kg ICG i.v., 20 h
  signal from colon polyp compared to background: ≥ 5 fold
[3]
  fluorescence peak: 816 nm
[4]
  hydrodynamic size (diameter) after protein binding: 6-8 nm
